From paper PMC6327263, “Evaluation of Novel 3-Hydroxyflavone Analogues as HDAC Inhibitors against Colorectal Cancer” (Advances in Pharmacological Sciences, 2018)

Assays:
p21^Waf1/Cip1 = assay: Western blotting, p21Waf1/Cip1 expression; assay type: cell-based, human; conditions: HCT116 cells, 24 h, compared to normal control
Protocol: (§1) After various treatments for 24 h, cells were lysed, and protein quantification of the lysates was estimated using the BCA™ kit (Thermo Fisher Scientific Inc., Waltham, MA, USA). Proteins samples (30 µg) were resolved on a 10% SDS-PAGE and transferred onto a PVDF membrane and blocked with 5% nonfat milk in TBST (tris-buffered saline with Tween-20) buffer for 1 h followed by washing in TBST buffer. The membrane was then probed with primary antibodies (GAPDH, HDAC8, p21^Waf1/Cip1, and acetyl-histone H3[Ac-Lys^9]) and incubated overnight at 4°C. The membrane was washed with TBST buffer and incubated with horseradish peroxidase-conjugated secondary antibody for 1 h at room temperature. Signal was captured using SuperSignal™ West Pico Plus chemiluminescent substrate (Thermo Fischer Scientific Inc., Waltham, MA, USA) on gel documentation system (G : BOX Chemi XRQ, Syngene).

HDAC8 = assay: Western blotting, HDAC8 expression; assay type: cell-based, human; conditions: HCT116 cells, 24 h, compared to normal control
Protocol: as §1

acetyl histone H3K9 = assay: Western blotting, acetyl histone H3K9 expression; assay type: cell-based, human; conditions: HCT116 cells, 24 h, compared to normal control
Protocol: as §1, with “Syngene). The protein band densities were estimated using the software ImageJ (version 1.46r, NIH, Bethesda, MD, USA).” for “Syngene).”

Wistar rats = assay type: in vivo; conditions: 2000 mg/kg p.o., limit test, 14 days observation
Protocol: Animal care and handling were carried out according to the guidelines of the Committee for the Purpose of Control and Supervision of Experiments on Animals (CPCSEA), after seeking the approval of the research proposal by institutional animal ethics committee (IAEC) (IAEC/KMC/23/2015). Male Wistar rats inbred at the central animal research facility (CARF), Manipal academy of higher education (MAHE), was used in the present study. […] The animals were housed in sterile polypropylene cages containing sterile paddy husk and were provided with 12 h light and dark cycles.
The safe dose of the promising two analogues (QMJ-2 and QMJ-5) and quercetin were evaluated using Organization for Economic Cooperation and Development (OECD), 425 guidelines. Limit test was performed using 2000 mg/kg dose.

Cc1ccc(-c2oc3ccccc3c(=O)c2O)cc1 [QMJ-2, 3-Hydroxy-2-(4-methylphenyl)-4H-1-benzopyran-4-one]
expression of p21^Waf1/Cip1 (p21^Waf1/Cip1): increased

Cc1ccc(-c2oc3cc(C)ccc3c(=O)c2O)cc1 [QMJ-5, 3-Hydroxy-7-methyl-2-(4-methylphenyl)-4H-1-benzopyran-4-one]
HDAC8 expression (HDAC8): significant reduction
expression of acetylated histone H3K9 (acetyl histone H3K9): significant increase
expression of p21^Waf1/Cip1 (p21^Waf1/Cip1): increased

O=c1c(O)c(-c2ccc(O)c(O)c2)oc2cc(O)cc(O)c12 [Quercetin, quercetin, reference compound]
HDAC8 expression (HDAC8): significant reduction
acute toxicity, tolerability (Wistar rats): safe and well tolerated
mortality (Wistar rats): no mortality
